Data reported in article PMC6271935, “Synthesis and Broad-Spectrum Antiviral Activity of Some Novel Benzo-Heterocyclic Amine Compounds” (Molecules, 2014).
Where “and” joins values, the source holds several entries; their conditions need not be identical. Equal values may be shown once.

How the values were obtained:
Huh7.5 cells = assay: Cytotoxicity in Huh7.5 cells (MTT); format: cell-based, human; settings: 96 h
Method: The Huh7.5 cells (1 × 10^4 cells/well) were plated in 96-well plates. Six hours later the culture media was replaced with fresh medium containing the test compounds at various concentrations. Cytotoxicity was evaluated with the 3-(4,5-dimethylthiazol-2-yl)-2,5-diphenyltetrazolium bromide (MTT) assay after 96 h.
Huh7.5 cells were seeded at a density of 3 × 10^4 cells/cm^2. After 24 h of incubation, the cells were infected with an HCV viral stock (approximately 45 IU per cell) and simultaneously treated with Telaprevir, the test compounds, or the solvent control. The culture medium was removed 96 h after inoculation, and the total intracellular RNA and total intracellular proteins were extracted with a Qiagen Kit according to the manufacturer’s instructions. Intracellular HCV RNA was quantified using a one-step real time RT-PCR kit (Invitrogen). Cytotoxicity was tested by the MTT assay, and IC50 values were calculated by the Reed and Muench methods.

[1] = tested on: Influenza A/hanfang/359/95; assay: microbe, parasite or virus in culture; format: cell-based; settings: Influenza A virus, MDCK
HepG2.2.15 cells = assay: Cytotoxicity in HepG2.2.15 cells (CPE); format: cell-based, human; settings: 3 + 3 days
Method: Cells were cultured for 3 days at 37 °C in a 5% CO2 atmosphere in an incubator, and the medium was replaced with fresh medium containing the test compounds for an additional 3 days. The cells were subsequently monitored by CPE and the TC50 value was calculated using Reed and Muench analysis.

HBV = assay: Anti-HBV assay in HepG2.2.15 cells, viral DNA by real time PCR; format: cell-based, Hepatitis B virus; settings: for IC50: Hepatitis B virus, HepG2.2.15, 144 h, intracellular viral DNA, 3 + 3 days
Method: The synthesized target compounds were assayed for their broad spectrum antiviral activity towards influenza A, HBV, HCV and Cox B3 virus in vitro. […] The inhibitory activities towards HBV and HCV were tested by real time PCR, and lamivudine (3TC) and teleprevir were used as positive controls, respectively.
The anti-HBV activities of test compounds and a positive control drug were tested in HepG2.2.15 cells. The HepG2.2.15 cells were cultured in 96-well plates and treated with the test compounds at 37 °C for 3 days. The medium was removed, and fresh medium containing the test compounds was added for an additional 3 days. The cells were harvested and intracellular DNA was extracted. The inhibition of viral DNA replication in treated cells versus untreated cells was determined by real time PCR.

Cox B3 = assay: organism not typed; format: cell-based, Coxsackie viruses (Cox B3 Nancy strain); settings: Vero
MDCK cells = assay: Cytotoxicity in MDCK cells (CPE); format: cell-based, Canine; settings: 48 h, Reed & Muench
Method: (§1) The cytotoxicity of the compounds in MDCK, Vero and HepG2.2.15 cells was monitored via cytopathic effect (CPE) assays. The MDCK and Vero cells (2.5 × 10^4 /well) were plated in a 96-well plate. Following a 24 h hold period, the monolayer of cells was incubated in the presence of various concentrations of the test compounds. […] The TC50 value was calculated using Reed & Muench analysis.

Vero cells = assay: Cytotoxicity in Vero cells (CPE); settings: 48 h, Reed & Muench
Method: as §1

HCV = assay: Anti-HCV assay in Huh7.5 cells, intracellular HCV RNA by real time RT-PCR; format: cell-based; settings: Hepatitis C virus, 96 h
[2] = tested on: influenza A, HCV, Cox B3 virus and HBV; assay: Broad-spectrum antiviral panel (summary over all four antiviral assays); format: cell-based; settings: range/approximate value over influenza A, read-out: IC50 over the entire virus panel

| SMILES | TC50 (50% cytotoxic concentration), HCV (Huh7.5 cells) [µM] | IC50 [1] [µM] | TC50 (50% cytotoxic concentration), HBV (HepG2.2.15 cells) [µM] | IC50 (HBV) [µM] | IC50 (Cox B3) [µM] | TC50 (50% cytotoxic concentration), Influenza A/hanfang/359/95 (MDCK cells) [µM] | TC50 (50% cytotoxic concentration), Cox B3 (Vero cells) [µM] | melting point [°C] | IC50 (HCV) [µM] | anti-HBV activity (in words) (HBV) | IC50 [2] |
| --- | --- | --- | --- | --- | --- | --- | --- | --- | --- | --- | --- |
| COc1cc(CNc2ccc3ncsc3c2)cc(Br)c1O [3a, 4-(Benzothiazol-6-ylaminomethyl)-2-bromo-6-methoxyphenol] | 108.82 | > 10.1 | 28.87 | > 16.7 | 10.1 | 21.08 | 21.08 | 193 to 195 | 49 | – | – |
| COc1cccc(CNc2ccc3ncsc3c2)c1O [3b, 2-(Benzothiazol-6-ylaminomethyl)-6-methoxyphenol] | 126.59 | 10 | 57.74 | > 33.3 | 5.66 | 55.95 | 67.23 | 206 to 208 | 38 | – | – |
| C(=C\c1ccccc1)/CNc1ccc2ncsc2c1 [3e, (E)-benzothiazol-6-yl-(3-phenyl-allyl)-amine] | 43.58 | 8.6 | 9.62 | > 5.56 | 1.16 | 24.10 | 20.05 | 99 to 101 | 9.75 | did not exhibit any activity | – |
| COc1ccccc1/C=C/CNc1ccc2ncsc2c1 [3f, (E)-benzothiazol-6-yl-[3-(2-methoxy-phenyl)-allyl]-amine] | 54.99 | 4.15 | 28.87 | 5.06 | 3.21 | 21.66 | 12.48 | 107 to 109 | 5.04 | – | 3.21 to 5.06 µM and ~5 µM |
| Cc1ccc(CNc2ccc3ncsc3c2)o1 [3g, Benzothiazol-6-yl-(5-methylfuran-2-ylmethyl)-amine] | 138.38 | 26.2 | 21.48 | 0.7 | 5.03 | 94.60 | 65.57 | 52 to 54 | 34.9 | – | 0.71 to 34.9 µM |
| Clc1ccc(CNc2ccc3ncsc3c2)s1 [3i, Benzothiazol-6-yl-(5-chlorothiophen-2-ylmethyl)-amine] | 38.24 | 3.42 | 9.62 | > 5.56 | 2.53 | 27.42 | 13.18 | 104 to 106 | 9.81 | – | – |
| c1ncc(CNc2ccc3ncsc3c2)cn1 [3j, Benzothiazol-6-yl-pyrimidin-5-ylmethyl-amine] | >200 | 214 | 28.87 | > 16.7 | 53 | 826.44 | 826.44 | 127 to 129 | > 66.7 | – | – |
| Cc1ccc(CNc2ccc3nc[nH]c3c2)o1 [4b, (3H-Benzoimidazol-5-yl)-(5-methyl-furan-2-ylmethyl)-amine] | >200 | 21.4 | >50 | > 50 | 48.9 | 440.02 | 254.07 | 75 to 77 | 24.4 | complete loss of antiviral activity | – |
